Results on 12 compounds are retold here after PubChem BioAssay (NCI).

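Where inhibition never reached the appropriate level, the endpoint shown equals the highest concentration tested. Otherwise, values were interpolated linearly from a five-concentration, 48-hour dose response in 96-well plates. GI50 marks 50% less growth. At the TGI there is no net growth.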 A value given as a limit tells only on which side of the number the result lay.

Some test systems named below: IGROV1 ovarian; M14 melanoma; EKVX NSCLC; TK-10 renal; DMS 114 small cell lung; SK-MEL-28 melanoma; RXF 393 renal; MDA-MB-231 breast; MCF7 breast; SNB-78 CNS.
Common to all, as to test: NCI anticancer screen, dose series, 48 h

Take `N#Cc1ccccc1NC(=O)C(=O)C1NC(=S)NC1=O` (configuration not stated): the TGI in the test on IGROV1 ovarian, in the test on M14 melanoma, in the test on EKVX NSCLC, in the test on TK-10 renal, in the test with DMS 114 small cell lung and with SK-MEL-28 melanoma was greater than 100 µM in each case. Also, the TGI with RXF 393 renal was greater than 100 µM.
Take `CCN(CC)CCCC(C)Nc1cc(-c2cccc(OC(F)(F)F)c2)nc2ccc(N3CCCC3)cc12` (configuration not stated): the GI50 in the test with IGROV1 ovarian was 0.0941 µM; with M14 melanoma it was 0.0361 µM; in the test with MDA-MB-231 breast it was 0.195 µM; in the test with EKVX NSCLC it was 0.069 µM; in the test on TK-10 renal, 8.82 µM; in the test on SK-MEL-28 melanoma, 5.85 µM. Besides, the GI50 in the test on MCF7 breast was 0.0353 µM; in the test on RXF 393 renal it was 0.0357 µM. The TGI was greater than 100 µM in the test on IGROV1 ovarian; 1.16 µM with M14 melanoma; 14.9 µM with MDA-MB-231 breast; greater than 100 µM in the test with EKVX NSCLC; greater than 93.1 µM in the test on TK-10 renal; 58.4 µM with SK-MEL-28 melanoma. Further, the TGI stood at 22.5 µM in the test with MCF7 breast and 89.1 µM in the test with RXF 393 renal.
Take `CN1Cc2ccccc2/C=C\c2ccccc21`: the TGI in the test on IGROV1 ovarian is greater than 100 µM; in the test on M14 melanoma it was greater than 100 µM; in the test with MDA-MB-231 breast, greater than 100 µM; in the test on EKVX NSCLC it was 92.7 µM; in the test with TK-10 renal, greater than 100 µM; in the test on SK-MEL-28 melanoma it was greater than 100 µM. Also, the figures for the TGI with MCF7 breast and in the test with RXF 393 renal were 67.9 µM and greater than 100 µM, respectively.
In the case of `C/C(CN1C(=O)c2ccccc2C1=O)=N\NS(=O)(=O)c1cccc(C(=O)O)c1`, the TGI with IGROV1 ovarian, in the test with M14 melanoma, in the test on EKVX NSCLC, in the test on TK-10 renal, with DMS 114 small cell lung and with SK-MEL-28 melanoma was greater than 100 µM in each case. Moreover, the TGI in the test on SNB-78 CNS was greater than 100 µM.
As for `CCN(CC)CC1CCCCN1CC(=O)N1CC(C)C(=O)Nc2ccccc21` (configuration not stated), the TGI in the test with IGROV1 ovarian, in the test on M14 melanoma, in the test on DMS 114 small cell lung and with SK-MEL-28 melanoma was greater than 100 µM each time.
`CCCCCC(=O)Nc1nc2nc[nH]c2c(=O)[nH]1`: the TGI in the test on IGROV1 ovarian, in the test with M14 melanoma, with EKVX NSCLC, with TK-10 renal, in the test on DMS 114 small cell lung and in the test with RXF 393 renal was greater than 100 µM each time. In the test on SNB-78 CNS, this compound showed a TGI greater than 100 µM.
Turning to `S=C1Cc2c(-c3ccc(Br)cc3)cc(-c3ccccc3)nc2-c2ccccc2N1`, the TGI came to 2.94 µM with IGROV1 ovarian; 11.8 µM with M14 melanoma; 3.72 µM in the test on MDA-MB-231 breast; 4.67 µM with EKVX NSCLC; 3.75 µM in the test with TK-10 renal; 27.3 µM in the test on SK-MEL-28 melanoma. Besides, the TGI was greater than 100 µM in the test with MCF7 breast and 6.01 µM in the test with RXF 393 renal. The GI50 with TK-10 renal was 1.79 µM.
With `O=C(NCCCc1cn[nH]c1)c1ccc(-c2ccncc2)c(C#Cc2ccc(F)cc2)c1`, the GI50 was 0.0282 µM with IGROV1 ovarian; less than 0.01 µM with M14 melanoma; 16.4 µM in the test on MDA-MB-231 breast; 8.39 µM in the test on EKVX NSCLC; 12.8 µM with TK-10 renal; 14.4 µM in the test with SK-MEL-28 melanoma. Further, the GI50 is 1.9 µM in the test on MCF7 breast and 3.58 µM in the test on RXF 393 renal. For the same compound, the TGI was greater than 100 µM in the test with IGROV1 ovarian; greater than 54.7 µM with M14 melanoma; greater than 100 µM in the test on MDA-MB-231 breast; greater than 100 µM with EKVX NSCLC; greater than 100 µM in the test on TK-10 renal; greater than 100 µM with SK-MEL-28 melanoma. Moreover, the TGI with MCF7 breast was greater than 70.2 µM; in the test on RXF 393 renal it was 19.8 µM.
Turning to `C#Cc1cccc(Nc2nc(Cl)nc3cc(NC(=O)CCl)ccc23)c1`, the GI50 with IGROV1 ovarian is 0.5 µM; in the test on M14 melanoma, 0.764 µM; in the test on MDA-MB-231 breast, 0.758 µM; in the test with EKVX NSCLC, 2.12 µM; in the test with TK-10 renal, 1.74 µM; in the test with SK-MEL-28 melanoma it was 2.85 µM. For the same compound, the values for the GI50 in the test on MCF7 breast and in the test with RXF 393 renal were 0.61 µM and 0.857 µM, respectively. For the same compound, the TGI was 1.12 µM with IGROV1 ovarian; 2.64 µM in the test on M14 melanoma; 2.73 µM in the test on MDA-MB-231 breast; 6.27 µM with EKVX NSCLC; 5.29 µM in the test on TK-10 renal; 6.12 µM in the test on SK-MEL-28 melanoma. Further, the results for the TGI in the test on MCF7 breast and in the test on RXF 393 renal were 3.12 µM and 3.38 µM, respectively.
As to `CC(C)N(Cc1ccc(CN(C(=O)CCl)C(C)C)cc1)C(=O)CCl`, the GI50 in the test on IGROV1 ovarian was 0.629 µM; in the test with M14 melanoma, 1.86 µM; in the test on MDA-MB-231 breast it was 2.1 µM; in the test on EKVX NSCLC, 2.36 µM; in the test on TK-10 renal, 2.69 µM; with SK-MEL-28 melanoma it was 2.36 µM. Also, the GI50 in the test on MCF7 breast is 1.7 µM; with RXF 393 renal, 1.33 µM. Besides, the TGI stood at 2.55 µM in the test on IGROV1 ovarian; 7.12 µM with M14 melanoma; 6.42 µM in the test with MDA-MB-231 breast; 5.63 µM in the test on EKVX NSCLC; 6.64 µM in the test on TK-10 renal; 6.52 µM in the test on SK-MEL-28 melanoma. In addition, the TGI with MCF7 breast stood at 12.1 µM; in the test with RXF 393 renal, 2.85 µM.
Consider `COC1CC(O)C(OC(=O)c2ccccc2)C(C)O1` (configuration not stated), for which the TGI in the test with IGROV1 ovarian, with M14 melanoma, in the test with TK-10 renal, in the test on SK-MEL-28 melanoma and with SNB-78 CNS was greater than 100 µM each time.
For the compound `CS(=O)(=O)Nc1cccc(-c2ccc3ncnc(Nc4ccc(F)c(Cl)c4)c3c2)c1`, the GI50 in the test with IGROV1 ovarian was 1.09 µM; with M14 melanoma, 1.76 µM; in the test on MDA-MB-231 breast it was 1.4 µM; in the test with EKVX NSCLC it was 0.129 µM; with TK-10 renal, 0.0801 µM; in the test with SK-MEL-28 melanoma, 2.28 µM. Besides, the GI50 was 1.56 µM in the test with MCF7 breast and 1.49 µM with RXF 393 renal. The TGI worked out at 5.41 µM in the test with IGROV1 ovarian; 3.66 µM in the test with M14 melanoma; 3.45 µM in the test on MDA-MB-231 breast; 3.72 µM in the test on EKVX NSCLC; 2.26 µM in the test on TK-10 renal; 7.2 µM in the test with SK-MEL-28 melanoma. Besides, the values for the TGI with MCF7 breast and with RXF 393 renal were 6.93 µM and 4.44 µM, respectively.
